Results as given in ChEMBL document CHEMBL1201862, “PubChem BioAssay data set” (2004).
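A five-concentration, 48-hour dose response in 96-well plates underlies each endpoint, interpolated linearly between surrounding concentrations. Abbreviation: GI50, concentration required for 50% inhibition of growth.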 Activity calls are given as the source filed them. No stated cut-off is given here; in the data, active = GI50 up to about 1.1 µM and inactive = higher.

How the values were obtained:
Assay in all cases: inhibition of tumour cell growth, NCI panel, 48 h
[1] = test system: UO-31
[2] = test system: LXFL 529
[3] = test system: MOLT-4
[4] = test system: EKVX
[5] = test system: CCRF-CEM
[6] = test system: SNB-75
[7] = test system: UACC-62
[8] = test system: RXF 393
[9] = test system: K562
[10] = test system: M19-MEL
[11] = test system: HT-29
[12] = test system: HCC 2998
[13] = test system: SK-MEL-2
[14] = test system: SK-MEL-28
[15] = test system: DMS-273
[16] = test system: NCI-H23
[17] = test system: OVCAR-4
[18] = test system: SN12C
[19] = test system: U-251
[20] = test system: HCT-116
[21] = test system: UACC-257
[22] = test system: RPMI-8226
[23] = test system: CAKI-1
[24] = test system: SNB-19
[25] = test system: IGROV-1
[26] = test system: TK-10
[27] = test system: A498
[28] = test system: COLO 205
[29] = test system: DMS-114
[30] = test system: SNB-78
[31] = test system: HOP-92
[32] = test system: KM-20L2
[33] = test system: XF498
[34] = test system: OVCAR-8
[35] = test system: HL-60
[36] = test system: LOX IMVI
[37] = test system: A549
[38] = test system: ACHN
[39] = test system: Malme-3M
[40] = test system: DLD-1
[41] = test system: NCI-H226
[42] = test system: SK-OV-3
[43] = test system: OVCAR-5
[44] = test system: SW-620
[45] = test system: SF-268
[46] = test system: RXF 631
[47] = test system: SK-MEL-5
[48] = test system: 786-0
[49] = test system: SR
[50] = test system: HCT-15
[51] = test system: M14
[52] = test system: NCI-H522
[53] = test system: SF-539
[54] = test system: HOP-62
[55] = test system: NCI-H460
[56] = test system: HOP-18
[57] = test system: OVCAR-3
[58] = test system: KM12
[59] = test system: SF-295

Measured: GI50

CCOC(=O)/C(ON)=C(/CC/C(C(=O)OC)=C(\ON)C(=O)OCC)C(=O)OC
inactive: [1] > 100 µM | [2] > 100 µM | [3] > 100 µM | [4] > 100 µM | [5] > 100 µM | [6] > 100 µM | [7] > 100 µM | [8] > 100 µM | [9] > 100 µM | [10] > 100 µM | [11] > 100 µM | [12] > 100 µM | [13] > 100 µM | [14] > 100 µM | [15] > 100 µM | [16] > 100 µM | [17] > 100 µM | [18] > 100 µM | [19] > 100 µM | [20] > 100 µM | [21] > 100 µM | [22] > 100 µM | [23] > 100 µM | [24] > 100 µM | [25] > 100 µM | [26] > 100 µM | [27] > 100 µM | [28] > 100 µM | [29] > 100 µM | [30] > 100 µM | [31] > 100 µM | [32] > 100 µM | [33] > 100 µM | [34] > 100 µM | [35] > 100 µM | [36] > 100 µM | [37] > 100 µM | [38] > 100 µM | [39] > 100 µM | [40] > 100 µM | [41] > 100 µM | [42] > 100 µM | [43] > 100 µM | [44] > 100 µM | [45] > 100 µM | [46] > 100 µM | [47] > 100 µM | [48] > 100 µM | [49] > 100 µM | [51] > 100 µM | [52] > 100 µM | [53] > 100 µM | [54] > 100 µM | [55] > 100 µM | [56] > 100 µM | [57] > 100 µM | [58] > 100 µM | [59] > 100 µM
> 100 µM: [50]

ClC/C=C/COC1CCCCO1 (stereo unspecified)
inactive: [1] > 100 µM | [2] > 100 µM | [3] 29 µM | [4] > 100 µM | [5] 36.8 µM | [6] > 100 µM | [7] 84.1 µM | [8] > 100 µM | [9] > 100 µM | [10] > 100 µM | [11] > 100 µM | [12] > 100 µM | [13] > 100 µM | [15] 62.2 µM | [16] > 100 µM | [17] > 100 µM | [18] > 100 µM | [19] 65.9 µM | [20] > 100 µM | [21] 45.7 µM | [22] 54.2 µM | [23] 89.9 µM | [24] > 100 µM | [25] > 100 µM | [26] > 100 µM | [27] > 100 µM | [28] 94.6 µM | [29] 33.2 µM | [30] > 100 µM | [31] > 100 µM | [32] > 100 µM | [33] 25.2 µM | [34] 57.5 µM | [35] 20.6 µM | [37] > 100 µM | [38] 60.5 µM | [39] > 100 µM | [40] > 100 µM | [41] > 100 µM | [42] > 100 µM | [43] > 100 µM | [44] > 100 µM | [45] 63.7 µM | [46] 34.8 µM | [47] > 100 µM | [48] > 100 µM | [49] 18.2 µM | [51] > 100 µM | [52] 2.12 µM | [53] > 100 µM | [54] > 100 µM | [55] > 100 µM | [56] > 100 µM | [57] > 100 µM | [58] > 100 µM | [59] > 100 µM
> 100 µM: [50]
